Experimental data as given in paper PMC2193020 (The Journal of Experimental Medicine, 1999).
Ends that are not written are not given here.

How the values were obtained:
[1] = system: MBP autoantibodies affinity-purified from CNS lesions; conditions: autoantibodies from CNS lesions of 12 postmortem MS cases; ref [19], [21]; cited from earlier work
I-A^s = target: T1, I-A^s (Mus musculus, UniProt P06345+P14437); assay: Class II peptide binding assay on purified I-A^s molecules
T1 sequence (P14437 1-233): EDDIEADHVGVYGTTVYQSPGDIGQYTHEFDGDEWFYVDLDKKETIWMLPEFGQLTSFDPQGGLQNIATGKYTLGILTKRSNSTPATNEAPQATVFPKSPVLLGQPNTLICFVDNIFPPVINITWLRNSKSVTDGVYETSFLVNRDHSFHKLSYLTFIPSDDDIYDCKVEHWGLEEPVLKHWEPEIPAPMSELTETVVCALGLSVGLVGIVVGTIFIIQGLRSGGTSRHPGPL
T1 sequence (P06345 28-263): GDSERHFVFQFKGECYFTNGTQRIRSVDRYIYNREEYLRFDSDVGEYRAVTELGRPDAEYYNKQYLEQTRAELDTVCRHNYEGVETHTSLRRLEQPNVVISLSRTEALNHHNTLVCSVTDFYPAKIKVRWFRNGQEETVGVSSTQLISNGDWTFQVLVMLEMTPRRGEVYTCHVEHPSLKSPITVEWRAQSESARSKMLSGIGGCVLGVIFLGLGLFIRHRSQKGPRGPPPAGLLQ

Molecule | Inhibition of autoantibody binding to MBP [1] [%] | IC50 (I-A^s) [nM]
VHFFKNIVTPRTP [MBPp87–99] | > 95 | 
IGGRVHFFKDISPIA [HPV 7] |  | 208
CC[C@H](C)[C@H](NC(=O)[C@H](CC(N)=O)NC(=O)[C@H](CCCCN)NC(=O)[C@H](Cc1ccccc1)NC(=O)[C@H](Cc1ccccc1)NC(=O)[C@H](Cc1c[nH]cn1)NC(=O)[C@@H](NC(=O)[C@@H](NC(=O)[C@@H]1CCCN1C(=O)[C@H](CC(N)=O)NC(=O)[C@@H](N)CCC(=O)O)C(C)C)C(C)C)C(=O)N[C@H](C(=O)N[C@H](C(=O)N1CCC[C@H]1C(=O)N[C@@H](CCCNC(=N)N)C(=O)O)[C@@H](C)O)C(C)C [MBPp85–99, reference compound] |  | 667
IGGRVHFFRDISPIG [HPV 40] |  | 180
CC(C)C[C@H](NC(=O)[C@H](CCCNC(=N)N)NC(=O)[C@H](CCCNC(=N)N)NC(=O)CNC(=O)CN)C(=O)N[C@@H](Cc1ccccc1)C(=O)N[C@@H](Cc1ccccc1)C(=O)N[C@H](C(=O)N[C@@H](CCCCN)C(=O)N[C@@H](C)C(=O)N[C@@H](Cc1c[nH]cn1)C(=O)N[C@H](C(=O)N[C@@H](CCCNC(=N)N)C(=O)N[C@@H](CCC(=O)O)C(=O)O)C(C)C)C(C)C [Herpes simplex DNA pol] |  | 551
